“And” between values parts separate entries of the source, which are not always exact repeats. Equal values may be shown once.
Columns and labels:
Trichoplusia ni [1] = experiment: In-planta insecticidal efficacy of Pylon (chlorfenapyr) with unsaturated aliphatic acids on sprayed green cabbage plants, Colby synergy factor; type: in vivo, Trichoplusia ni (cabbage looper); settings: 0.06 mg/mL aliphatic acid (salt)
Procedure: A stock solution for the potassium salt of (2E,4E)-2,4-hexadienoic acid was prepared by dissolving the salt in water to form a 20 mg/mL (20,000 ppm) solution. […] Each experiment was repeated at least 3 times.
(§1) While for SF<1, antagonism is present and for SF=1, the efficacy of the compounds is merely additive.

Trichoplusia ni [2] = experiment: In-vitro insecticidal efficacy of Pylon (chlorfenapyr) with unsaturated aliphatic acids in artificial diet, Colby synergy factor; type: in vivo, Trichoplusia ni (cabbage looper)
Procedure: A stock solution was prepared for each of trans-2-hexenoic acid and trans-3-hexenoic acid (both available from Sigma-Aldrich, St. Louis, Mo., USA), by dissolving each exemplary unsaturated aliphatic acid in 100% dimethylsulfoxide (DMSO) at a concentration of 20 mg/mL (20,000 ppm). A stock solution for the potassium salt of (2E,4E)-2,4-hexadienoic acid was prepared by dissolving the salt in water to form a 20 mg/mL (20,000 ppm) solution.
An artificial diet suitable for Trichoplusia ni (cabbage looper caterpillar) was prepared according to the modified McMorran artificial diet recipe known in the entomology field (containing agar, casein, potassium hydroxide, alphacel, Wesson's salt mix, sugar, toasted wheat germ, choline chloride, ascorbic acid, methyl paraben, aureomycin, linseed oil and vitamin solution).
The treated artificial diet was then used to fill each well of a 24-well treatment plate with approximately 0.5 mL of artificial diet, which was allowed to solidify at room temperature and stored overnight at approximately 4 C. […] Each experiment contained 3 replicates, and was repeated at least 3 times.
as §1

Fusarium oxysporum = experiment: Synergistic Growth Inhibition Assay (MIC / FIC index, resazurin, 96-well) on Fusarium oxysporum; type: cell-based; settings: Compound A alone
Procedure: (§2) In some embodiments, the synergistic action between the pesticidal active ingredient, and the at least one C4-C10 (or alternatively C11 or C12) saturated or unsaturated aliphatic acid components of the pesticidal compositions according to embodiments of the present disclosure was tested using a Synergistic Growth Inhibition Assay, which is derived from and related to a checkerboard assay as is known in the art for testing of combinations of antimicrobial agents. In the Synergistic Growth Inhibition Assay used in accordance with some embodiments of the present disclosure, multiple dilutions of combinations of pesticidal active ingredient and at least one C4-C10 saturated or unsaturated aliphatic acid agents are tested in individual cells for inhibitory activity against a target pest or pathogenic organism. In one such embodiment, the combinations of pesticidal active ingredient and C4-C10 (or alternatively C11 or C12) saturated or unsaturated aliphatic acid agents may preferably be tested in decreasing concentrations. In a further such embodiment, the combinations of pesticidal active ingredient and C4-C10 (or alternatively C11 or C12) saturated or unsaturated aliphatic acid agents may be tested in increasing concentrations. These multiple combinations of the pesticidal active ingredient and at least one C4-C10 (or alternatively C11 or C12) saturated or unsaturated aliphatic acid agents may be prepared in 96-well microtiter plates. In one such embodiment, the Synergistic Growth Inhibition Assay then comprises rows which each contain progressively decreasing concentrations of the pesticidal active ingredient and one or more C4-C10 (or alternatively C11 or C12) saturated or unsaturated aliphatic acid agents to test for the MIC of the agents in combination at which growth of the target pest or pathogen is inhibited. Thus, each well of the microtiter plate is a unique combination of the two agents, at which inhibitory efficacy of the combination against the target pest or pathogen can be determined.
(§3) In one embodiment according to the present disclosure, for each row of microtiter cells in the Synergistic Growth Inhibition Assay, the FIC index is calculated from the lowest concentration of the pesticidal active ingredient and one or more C4-C10 saturated or unsaturated aliphatic acid agents necessary to inhibit growth of a target pest or pathogen. The FIC of each component is derived by dividing the concentration of the agent present in that well of the microtiter plate by the minimal inhibitory concentration (MIC) needed of that agent alone to inhibit growth of the target pest or pathogen. The FIC index is then the sum of these values for both agents in that well of the microtiter plate. The FIC index is calculated for each row as follows:
(§4) FICindex=MICa/MICA+MICb/MICB
(§5) Fractional inhibitory concentration indices may then used as measure of synergy. […] When the FIC index is equal to 1, the combination is additive.
(§6) Then, serial dilutions of these initial compositions in successive wells in the row of the microtiter plate were used to assay the pesticidal composition under the same conditions to determine the concentration of the composition combining the two agents corresponding to the microtiter well in which growth inhibition of the target pest or organism ceases.
Resazurin dye (also known as Alamar blue dye) was used as an indicator to determine the presence of growth or inhibition of growth of Fusarium oxysporum in the wells of the 96 well microtiter plates used in the exemplary Synergistic Growth Inhibition Assay. In addition to the color change of the resazurin dye in the presence of growth of the Fusarium oxysporum, an optical or visual examination of the microtiter well may also be made to additionally determine the presence of growth or inhibition of growth of the Fusarium oxysporum.

Botrytis cinerea = experiment: Synergistic Growth Inhibition Assay (MIC / FIC index, resazurin, 96-well) on Botrytis cinerea; type: cell-based
Procedure: as §2, §3, §4, §5, §6
(§7) Similarly to as described above, Resazurin was used as an indicator of growth or inhibition of growth of Botrytis cinerea in the exemplary Synergistic Growth Inhibition Assay. In addition to the color change of the resazurin, an optical or visual examination of the microtiter well may also be made to additionally determine the presence of growth or inhibition of growth of the Botrytis cinerea.

Sclerotinia sclerotiorum = experiment: Synergistic Growth Inhibition Assay (MIC / FIC index, resazurin, 96-well) on Sclerotinia sclerotiorum; type: cell-based; settings: Compound A alone
Procedure: as §2, §3, §4, §5, §6
as §7, with “Sclerotinia sclerotiorum” for “Botrytis cinerea”, “Sclerotinia sclerotiorum.” for “Botrytis cinerea.”

[3] = Solubility / effective solubilized concentration in 10% DMSO/90% PDB by HPLC; settings: DMSO stock diluted 10-fold in PDB; verified by HPLC
Procedure: This solution was diluted 10-fold in potato dextrose broth (PDB) to give a concentration of 0.05 mg/mL in 10% DMSO/90% PDB.

[4] = aliphatic acid (salt) 0.05 mg/mL
[5] = aliphatic acid (salt) 0.30 mg/mL

CC=CC=CC(=O)[O-].[K+] [2,4-hexadienoic acid, K-salt]
Observed Efficacy (%) (Trichoplusia ni [1]; after 48 hours): 13%
Observed Efficacy (%) (Trichoplusia ni [1]; after 72 hours): 0%

CC=CC=CC(=O)[O-].[K+] [2,4-hexenoic acid-Ksalt]
72 hr Obs. Efficacy (Trichoplusia ni [2]; [4]): 4%
72 hr Obs. Efficacy (Trichoplusia ni [2]; [5]): 13%
90 hr Obs. Efficacy (Trichoplusia ni [2]; [4]): 4%
90 hr Obs. Efficacy (Trichoplusia ni [2]; [5]): 13%
120 hr Obs. Efficacy (Trichoplusia ni [2]; [4]): 4%
120 hr Obs. Efficacy (Trichoplusia ni [2]; [5]): 4%

CO/C=C(/C(=O)OC)c1ccccc1Oc1cc(Oc2ccccc2C#N)ncn1 [Azoxystrobin, reference compound]
MIC (A) (Fusarium oxysporum; 48 hours incubation): 75 µg/mL and 150 µg/mL
MIC (A) (Fusarium oxysporum; Fusarium oxysporum, 2-fold dilutions, incubation period of 48 hours): 150 µg/mL
MIC (A) (Fusarium oxysporum; Fusarium oxysporum, incubation period of 48 hours): 150 µg/mL
MIC (A) (Botrytis cinerea; Compound A alone, 48 hours incubation): 37.5 µg/mL and 75 µg/mL
MIC (A) (Botrytis cinerea; Compound A alone, Botrytis cinerea, incubation period of 2 days): 150 µg/mL
MIC (A) (Botrytis cinerea; Compound A alone, Botrytis cinerea, incubation period of 48 hours): 150 µg/mL
MIC (A) (Botrytis cinerea; Table 45, Compound A = azoxystrobin, alone or in combination with Compound B, 48 hours incubation): 75 µg/mL
MIC (A) (Sclerotinia sclerotiorum; 7 days incubation): 150 µg/mL and 75 µg/mL
MIC (A) (Sclerotinia sclerotiorum; Sclerotinia sclerotiorum, 2-fold dilutions, incubation period of 7 days): 150 µg/mL
MIC (A) (Sclerotinia sclerotiorum; Sclerotinia sclerotiorum, incubation period of 7 days): 150 µg/mL
effective solubilized concentration of working stock solution [3]: 0.15 mg/mL

Source: patent publication US20210352895A1, “SYNERGISTIC PESTICIDAL COMPOSITIONS AND METHODS FOR DELIVERY OF ACTIVE INGREDIENTS” (0903608 B.C. Ltd., priority 2018, published 2021)
